Common to all, as to assay: cell-based
One assay deals with hNav1.7 (Homo sapiens, UniProt Q15858). It counts as cell-based. The settings on record: IonWorks Quattro, read-out: IWQ Use Nav1.7.
Another assay has as its target hNav1.5 (Homo sapiens, UniProt Q14524).
The next assay has as its target hNav1.3 (Homo sapiens, UniProt Q9NY46). The settings on record: IonWorks Quattro, read-out: IWQ Use Nav1.3. (In general: In patch-clamp work, channel activity is measured electrically.)

Read-outs that look alike come from different tables or passages of the source. Positions of bridges follow the written chain, without caps; N, C: chain ends. Residues, ends and D or L forms follow the SMILES beside them.

This passage reports IC50 results from US9340590B2 (priority 2011, dated 2016).

hNav1.7, sequence (Q15858 whole entry, looked up): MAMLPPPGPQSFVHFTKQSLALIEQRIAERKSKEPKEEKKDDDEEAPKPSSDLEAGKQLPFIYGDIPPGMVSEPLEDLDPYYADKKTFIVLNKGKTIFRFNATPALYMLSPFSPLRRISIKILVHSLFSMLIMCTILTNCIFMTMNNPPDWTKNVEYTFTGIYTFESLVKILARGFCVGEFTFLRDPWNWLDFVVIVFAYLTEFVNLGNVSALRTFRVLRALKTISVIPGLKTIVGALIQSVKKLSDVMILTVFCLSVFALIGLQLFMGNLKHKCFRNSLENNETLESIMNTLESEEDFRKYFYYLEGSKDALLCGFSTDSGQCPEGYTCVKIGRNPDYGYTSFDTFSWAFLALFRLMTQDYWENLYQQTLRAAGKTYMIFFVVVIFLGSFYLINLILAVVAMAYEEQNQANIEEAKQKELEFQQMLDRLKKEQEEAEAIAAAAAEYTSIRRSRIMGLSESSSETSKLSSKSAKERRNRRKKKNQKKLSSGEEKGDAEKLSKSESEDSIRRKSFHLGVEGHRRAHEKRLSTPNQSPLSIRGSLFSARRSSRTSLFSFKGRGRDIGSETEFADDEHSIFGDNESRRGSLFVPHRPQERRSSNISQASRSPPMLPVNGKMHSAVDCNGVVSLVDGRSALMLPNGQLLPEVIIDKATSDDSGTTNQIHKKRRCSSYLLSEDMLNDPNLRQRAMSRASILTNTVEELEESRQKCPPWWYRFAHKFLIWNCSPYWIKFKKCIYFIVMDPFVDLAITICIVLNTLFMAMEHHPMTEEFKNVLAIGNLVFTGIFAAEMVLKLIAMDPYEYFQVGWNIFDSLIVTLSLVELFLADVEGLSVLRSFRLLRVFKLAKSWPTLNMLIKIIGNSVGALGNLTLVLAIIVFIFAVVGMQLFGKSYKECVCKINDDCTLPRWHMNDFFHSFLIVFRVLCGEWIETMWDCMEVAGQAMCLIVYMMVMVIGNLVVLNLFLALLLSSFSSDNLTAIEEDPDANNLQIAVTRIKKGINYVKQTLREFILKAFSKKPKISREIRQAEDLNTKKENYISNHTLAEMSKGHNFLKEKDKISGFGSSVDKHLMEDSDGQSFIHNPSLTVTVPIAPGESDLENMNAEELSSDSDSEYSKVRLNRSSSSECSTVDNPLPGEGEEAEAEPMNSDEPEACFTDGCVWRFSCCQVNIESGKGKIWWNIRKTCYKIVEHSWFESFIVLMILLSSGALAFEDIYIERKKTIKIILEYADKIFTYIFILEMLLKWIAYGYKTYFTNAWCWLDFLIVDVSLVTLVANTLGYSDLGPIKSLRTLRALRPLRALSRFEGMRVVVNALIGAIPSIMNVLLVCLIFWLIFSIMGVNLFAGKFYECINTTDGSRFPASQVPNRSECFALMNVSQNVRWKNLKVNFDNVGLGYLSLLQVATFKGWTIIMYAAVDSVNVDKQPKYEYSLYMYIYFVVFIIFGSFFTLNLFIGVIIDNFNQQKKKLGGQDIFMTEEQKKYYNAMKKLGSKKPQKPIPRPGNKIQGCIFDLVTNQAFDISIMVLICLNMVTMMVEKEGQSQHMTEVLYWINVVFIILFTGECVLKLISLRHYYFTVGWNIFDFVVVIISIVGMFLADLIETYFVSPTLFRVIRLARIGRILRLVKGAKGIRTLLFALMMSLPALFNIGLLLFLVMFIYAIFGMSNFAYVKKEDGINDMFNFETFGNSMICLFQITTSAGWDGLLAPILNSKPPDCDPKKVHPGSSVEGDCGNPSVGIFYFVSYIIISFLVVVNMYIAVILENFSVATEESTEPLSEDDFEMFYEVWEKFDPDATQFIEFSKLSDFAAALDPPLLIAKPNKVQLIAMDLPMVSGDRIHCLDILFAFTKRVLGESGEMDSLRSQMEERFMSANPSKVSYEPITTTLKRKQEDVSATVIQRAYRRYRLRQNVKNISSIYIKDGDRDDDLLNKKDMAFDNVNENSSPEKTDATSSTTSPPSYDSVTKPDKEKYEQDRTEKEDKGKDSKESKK
hNav1.5, sequence (Q14524 whole entry, looked up): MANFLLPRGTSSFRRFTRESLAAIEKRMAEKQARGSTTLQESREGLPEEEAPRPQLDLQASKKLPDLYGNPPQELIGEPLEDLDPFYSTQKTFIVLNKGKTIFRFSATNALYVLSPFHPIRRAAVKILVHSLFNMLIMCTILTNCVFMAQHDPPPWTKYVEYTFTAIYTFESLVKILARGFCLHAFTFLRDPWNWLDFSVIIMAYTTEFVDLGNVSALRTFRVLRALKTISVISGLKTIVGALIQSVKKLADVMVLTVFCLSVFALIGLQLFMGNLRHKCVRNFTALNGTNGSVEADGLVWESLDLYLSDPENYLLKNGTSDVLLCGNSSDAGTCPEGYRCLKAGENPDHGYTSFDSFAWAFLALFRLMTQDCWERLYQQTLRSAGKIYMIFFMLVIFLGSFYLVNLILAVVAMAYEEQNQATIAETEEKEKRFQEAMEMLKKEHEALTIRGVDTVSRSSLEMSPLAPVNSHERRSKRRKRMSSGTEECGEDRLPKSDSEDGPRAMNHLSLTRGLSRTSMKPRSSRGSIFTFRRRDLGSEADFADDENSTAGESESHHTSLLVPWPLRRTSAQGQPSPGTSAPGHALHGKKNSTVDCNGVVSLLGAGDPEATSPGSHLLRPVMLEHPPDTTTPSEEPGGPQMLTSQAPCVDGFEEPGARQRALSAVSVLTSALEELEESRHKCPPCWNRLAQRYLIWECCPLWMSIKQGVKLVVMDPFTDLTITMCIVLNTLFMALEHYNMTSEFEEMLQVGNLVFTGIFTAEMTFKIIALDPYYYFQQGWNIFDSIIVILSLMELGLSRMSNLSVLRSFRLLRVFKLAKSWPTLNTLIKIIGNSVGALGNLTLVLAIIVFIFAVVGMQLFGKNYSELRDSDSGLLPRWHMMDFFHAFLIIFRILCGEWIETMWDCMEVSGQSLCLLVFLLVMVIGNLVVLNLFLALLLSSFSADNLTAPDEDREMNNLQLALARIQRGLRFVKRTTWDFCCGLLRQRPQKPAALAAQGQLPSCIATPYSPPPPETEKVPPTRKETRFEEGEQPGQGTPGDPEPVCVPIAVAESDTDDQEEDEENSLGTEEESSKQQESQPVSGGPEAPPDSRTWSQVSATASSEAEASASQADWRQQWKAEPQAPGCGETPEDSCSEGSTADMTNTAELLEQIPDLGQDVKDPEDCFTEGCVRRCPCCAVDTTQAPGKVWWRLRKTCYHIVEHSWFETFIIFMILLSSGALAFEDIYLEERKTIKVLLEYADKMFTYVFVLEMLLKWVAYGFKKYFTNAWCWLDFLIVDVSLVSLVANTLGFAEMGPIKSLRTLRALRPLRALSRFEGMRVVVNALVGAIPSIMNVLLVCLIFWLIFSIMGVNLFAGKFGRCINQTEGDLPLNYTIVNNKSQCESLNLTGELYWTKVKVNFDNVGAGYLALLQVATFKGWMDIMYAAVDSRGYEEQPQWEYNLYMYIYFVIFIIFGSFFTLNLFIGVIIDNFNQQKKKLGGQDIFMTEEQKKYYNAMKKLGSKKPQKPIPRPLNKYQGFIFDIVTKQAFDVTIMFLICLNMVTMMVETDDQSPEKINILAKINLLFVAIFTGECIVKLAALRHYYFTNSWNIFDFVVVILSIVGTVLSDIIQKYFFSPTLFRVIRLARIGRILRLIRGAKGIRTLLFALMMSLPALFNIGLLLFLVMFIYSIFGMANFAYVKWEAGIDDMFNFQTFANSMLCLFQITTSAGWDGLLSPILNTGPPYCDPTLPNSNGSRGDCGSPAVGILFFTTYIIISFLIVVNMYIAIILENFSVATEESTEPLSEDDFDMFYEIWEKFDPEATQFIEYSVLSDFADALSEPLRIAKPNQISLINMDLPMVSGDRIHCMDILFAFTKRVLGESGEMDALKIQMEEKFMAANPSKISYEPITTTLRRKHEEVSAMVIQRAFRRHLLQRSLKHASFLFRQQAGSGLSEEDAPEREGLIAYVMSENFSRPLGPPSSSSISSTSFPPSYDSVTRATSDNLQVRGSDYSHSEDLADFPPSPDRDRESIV

For the compound `CC[C@H](C)[C@@H]1NC(=O)[C@@H]2CSSC[C@@H]3NC(=O)[C@H](C(C)C)NC(=O)[C@H](CC(C)C)NC(=O)[C@H](CC(N)=O)NC(=O)[C@@H]4CCCN4C(=O)[C@H](CCCNC(=N)N)NC(=O)[C@H](CSSC[C@H](NC(=O)[C@@H](N)CC(=O)O)C(=O)N[C@@H](CC(C)C)C(=O)NCC(=O)N[C@@H](CCSC)C(=O)N[C@@H](CC(C)C)C(=O)N[C@@H](CCCNC(=N)N)C(=O)N[C@@H](CCCCN)C(=O)N2)NC(=O)[C@H](CSSC[C@@H](C(=O)N[C@@H](CCCCN)C(=O)N[C@@H](Cc2ccc(O)cc2)C(=O)N[C@H](C(=O)N[C@@H](Cc2ccccc2)C(N)=O)C(C)C)NC(=O)[C@H](Cc2c[nH]c4ccccc24)NC(=O)[C@H](CCCCN)NC(=O)[C@H](Cc2c[nH]cn2)NC(=O)[C@H]([C@@H](C)O)NC(=O)[C@H](CCCNC(=N)N)NC(=O)[C@H](CO)NC3=O)NC(=O)[C@H](CCCCN)NC(=O)[C@H](CC(=O)O)NC(=O)[C@H](CC(N)=O)NC(=O)[C@H](CC(=O)O)NC(=O)[C@@H]2CCCN2C1=O` [compound 641] (H-DCLGMLRKCIPDNDKCCRPNLVCSRTHKWCKYVF-NH2; disulfide 2-17, 9-23, 16-30), the IC50 on hNav1.7 (use-dependent protocol, hNav1.7) is 0.069 µM; against hNav1.5 (IWQ Use Nav1.5), over 5 µM; on hNav1.3 (use-dependent protocol, hNav1.3) it was 0.24 µM.

For `CC[C@H](C)[C@@H]1NC(=O)[C@@H]2CSSC[C@@H]3NC(=O)[C@H](C(C)C)NC(=O)[C@H](CC(C)C)NC(=O)[C@H](CC(N)=O)NC(=O)[C@@H]4CCCN4C(=O)[C@H](CCCNC(=N)N)NC(=O)[C@H](CSSC[C@H](NC(=O)[C@@H](N)CC(=O)O)C(=O)N[C@@H](CC(C)C)C(=O)NCC(=O)N[C@@H](C)C(=O)N[C@@H](Cc4ccccc4)C(=O)N[C@@H](CCCNC(=N)N)C(=O)N[C@@H](CCCCN)C(=O)N2)NC(=O)[C@H](CSSC[C@@H](C(=O)N[C@@H](CCCCN)C(=O)N[C@@H](Cc2ccc(O)cc2)C(=O)N[C@H](C(=O)N[C@@H](Cc2ccccc2)C(=O)O)C(C)C)NC(=O)[C@H](Cc2c[nH]c4ccccc24)NC(=O)[C@H](CCCNC(=N)N)NC(=O)[C@H](Cc2c[nH]cn2)NC(=O)[C@H]([C@@H](C)O)NC(=O)[C@H](CCCNC(=N)N)NC(=O)[C@H](CO)NC3=O)NC(=O)[C@H](CCCCN)NC(=O)[C@H](CC(=O)O)NC(=O)[C@H](CCCNC(=N)N)NC(=O)[C@H](CC(=O)O)NC(=O)[C@@H]2CCCN2C1=O` [compound 848], the IC50 is 4.5 µM at hNav1.7 (use-dependent block, hNav1.7); over 5 µM on hNav1.5 (IonWorks Quattro, use-dependent block, hNav1.5, read-out: IWQ Use Nav1.5); 0.6 µM at hNav1.3 (use-dependent block, hNav1.3).

As for `CC[C@H](C)[C@@H]1NC(=O)[C@@H]2CSSC[C@@H]3NC(=O)[C@H](Cc4c[nH]cn4)NC(=O)[C@H](CC(C)C)NC(=O)[C@H](CC(N)=O)NC(=O)[C@@H]4CCCN4C(=O)[C@H](CCCNC(=N)N)NC(=O)[C@H](CSSC[C@H](NC(=O)[C@@H](N)CC(=O)O)C(=O)N[C@@H](CC(C)C)C(=O)NCC(=O)N[C@@H](Cc4ccccc4)C(=O)N[C@@H](CCSC)C(=O)N[C@@H](CCCNC(=N)N)C(=O)N[C@@H](CCCCN)C(=O)N2)NC(=O)[C@H](CSSC[C@@H](C(=O)N[C@@H](CCCCN)C(=O)N[C@@H](Cc2ccc(O)cc2)C(=O)N[C@H](C(=O)N[C@@H](Cc2ccccc2)C(N)=O)C(C)C)NC(=O)[C@H](Cc2c[nH]c4ccccc24)NC(=O)[C@H](CCCCN)NC(=O)[C@H](Cc2c[nH]cn2)NC(=O)[C@H]([C@@H](C)O)NC(=O)[C@H](CCCNC(=N)N)NC(=O)[C@H](CO)NC3=O)NC(=O)[C@H](CCCCN)NC(=O)[C@H](CC(=O)O)NC(=O)[C@H](CC(N)=O)NC(=O)[C@H](CC(=O)O)NC(=O)[C@@H]2CCCN2C1=O` [compound 326] (H-DCLGFMRKCIPDNDKCCRPNLHCSRTHKWCKYVF-NH2; disulfide 2-17, 9-23, 16-30), the IC50 at hNav1.7 (Use) is 0.41 µM; on hNav1.5 (IonWorks Quattro, Use, read-out: IWQ Use Nav1.5), 15.6 µM; on hNav1.3 (Use) it was 0.1 µM.
